The values that follow come from patent publication US20110130346A1, “PEPTIDE CONJUGATES FOR DELVERY OF BIOLOGICALLY ACTIVE COMPOUNDS” (ISIS INNOVATION LIMITED, priority 2008, published 2011).

The subject of series [1] is exon and intron 23 of the dystrophin gene. As to the kind of experiment: Example 3: intramuscular injection of glucose-formulated AOs, dystrophin-positive myofibres by immunohistochemistry. The note with it: intramuscular into TA, 8 week old mdx mice, two weeks. The format is in vivo. The method, then:
Here we study a novel delivery glucose formulation by evaluating it via local intramuscular injection into the mdx mouse tibialis anterior (TA) muscle. Initial experiments were performed in 6-8 week old mdx mice (referred to as 8 weeks) by treatment with a single dose of 5 ug of 2′OMePS AO formulated in 5% glucose. In a parallel control study, age-matched control mdx mice were treated with the same AO dose formulated in standard saline buffer.
For intramuscular studies the TA muscle of each experimental mdx mouse was injected with a 40 μl dose of PNA and PNA-peptide conjugates with saline at a final concentration of 125 μg/ml, and the contralateral muscle was injected with saline. […]
(§1) Sections of 8 μm were cut from at least two-thirds of the muscle length of TA, quadriceps, gastrocnemius, biceps, abdominal wall and diaphragm muscles and cardiac muscle at 100 μm intervals. […] The maximum number of dystrophin-positive fibres in one section was counted using the Zeiss AxioVision fluorescence microscope. […] Polyclonal antibodies were detected by goat-anti-rabbit IgGs Alexa Fluro 594 (Molecular Probe, UK). […] Polyclonal antibodies were detected by goat-anti-rabbit IgGs Alexa 594 and the monoclonal antibodies by goat-anti-mouse IgGs Alexa 594 (Molecular Probe, UK). […]

The test system is the same in series [2]. As to the kind of experiment: Example 3: intramuscular glucose-formulated AOs, RT-PCR of exon skipping. The format is in vivo, mdx mice. The method, then: Total RNA was extracted from skeletal muscle and heart tissue with Trizol (Invitrogen, UK) and 200 ng of RNA template was used for 20 μl RT-PCR with OneStep RT-PCR kit (Qiagen, UK). The primer sequences for the initial RT-PCR were Exon20Fo 5′-[…]-3′ and Ex26Ro 5′-[…]-3′ for amplification of messenger RNA from exons 20 to 26. The cycle conditions were 95° C. for 30 seconds, 55° C. for 1 minute and 72° C. for 2 minutes for 25 cycles. RT-PCR product (1 μl) was then used as the template for secondary PCR performed in 25 μl with 0.5 U Taq DNA polymerase (Invitrogen, UK). The primer sequences for the second round were Ex20Fi 5′-[…]-3′ and Ex24Ri 5′-[…]-3. The cycle conditions were 95° C. for 1 minute, 57° C. for 1 minute, and 72° C. for 2 min for 25 cycles. The products were examined by electrophoresis on a 2% agarose gel.
For intramuscular studies the TA muscle of each experimental mdx mouse was injected with a 40 μl dose of PNA and PNA-peptide conjugates with saline at a final concentration of 125 μg/ml, and the contralateral muscle was injected with saline. For systemic intravenous injections, X μg PNA or PNA-peptide conjugates in 80 μl saline buffer were injected into tail vein of mdx mice at the final dose of 25 mg/kg and 6 mg/kg, respectively. […]

Series [3] shares this test system. In words: Example 3: intramuscular glucose-formulated AOs, Western blot of dystrophin. The format is in vivo, mdx mice. How it is done:
For intramuscular studies the TA muscle of each experimental mdx mouse was injected with a 40 μl dose of PNA and PNA-peptide conjugates with saline at a final concentration of 125 μg/ml, and the contralateral muscle was injected with saline. For systemic intravenous injections, X μg PNA or PNA-peptide conjugates in 80 μl saline buffer were injected into tail vein of mdx mice at the final dose of 25 mg/kg and 6 mg/kg, respectively. The animals were killed at various time points after injection by CO2 inhalation and tissues were removed and snap-frozen in liquid nitrogen-cooled isopentane and stored at −80° C.
The collected sections were placed in a 1.5 ml polypropylene eppendorf tube (Anachem, UK) on dry ice. […] The supernatant was collected and the protein concentration was quantified by Bradford assay (Sigma, UK). […] The bound primary antibody was detected by horseradish peroxidise-conjugated rabbit anti-mouse IgGs and the ECL Western Blotting Analysis system (Amersham Pharmacia Biosciences, UK). The intensity of the bands obtained from treated mdx muscles was measured by Image J software; the quantification is based on band intensity and area, and is compared with that from normal muscles of C57BL6 mice.
For orientation: In western blotting, separated proteins are transferred to a membrane and probed.

Series [4] has the same test system. As to the kind of experiment: Example 3: intravenous glucose-formulated AOs, dystrophin immunohistochemistry. The format is in vivo, mdx mice. To be noted: single intravenous dose of 25 mg/kg.
Text: (§2) Given the dramatic enhancement in AO uptake and exon skipping activity and dystrophin restoration observed following intramuscular delivery of glucose-formulated AO we wished to study whether or not such enhancement could also facilitate improved systemic AO delivery and splice correcting activity. Initially we chose to study whether or not systemic PMO AO delivery was enhanced following glucose formulation. We compared PMO formulated in saline with PMO formulated in either 5% glucose or formulated in glucose at a final concentration of 4.5% and delivered these via a single intravenous dose of 25 mg/kg in mdx mice.
We further studied the intravenous enhancing effects by investigating the effects on a peptide conjugated PMO compound using a well characterised arginine-rich peptide (RXR)4. […]
as §1

Series [5] shares this test system. In words: Example 3: intravenous glucose-formulated AOs, RT-PCR of splice correction. The format is in vivo, mdx mice. The note with it: single intravenous dose of 25 mg/kg, various muscle groups.
Text: as §2
We further studied the intravenous enhancing effects by investigating the effects on a peptide conjugated PMO compound using a well characterised arginine-rich peptide (RXR)4.
Total RNA was extracted from skeletal muscle and heart tissue with Trizol (Invitrogen, UK) and 200 ng of RNA template was used for 20 μl RT-PCR with OneStep RT-PCR kit (Qiagen, UK). The primer sequences for the initial RT-PCR were Exon20Fo 5′-[…]-3′ and Ex26Ro 5′-[…]-3′ for amplification of messenger RNA from exons 20 to 26. The cycle conditions were 95° C. for 30 seconds, 55° C. for 1 minute and 72° C. for 2 minutes for 25 cycles. RT-PCR product (1 μl) was then used as the template for secondary PCR performed in 25 μl with 0.5 U Taq DNA polymerase (Invitrogen, UK). […]

For “5′-GGCCAAACCTCGGCTTACCTGAAAT-3′ (morpholino backbone, further chemistry not given here) [PMO, neutrally charged PMO AO, M23D, 25 mer]”, in series [1], the “dystrophin-positive myofibres, 5% glucose formulation compared with saline formulation” value is recorded as “no significant difference”. The “exon skipping activity at the RNA level, glucose versus saline formulation” value in series [2] is listed as “enhanced exon skipping activity”. The “dystrophin protein expression on Western blot, glucose versus saline formulation” value in series [3] is “increased dystrophin protein expression”. In addition, the “corrected dystrophin-positive fibres, glucose (5% or 4.5%) versus saline formulation” value in series [4] is listed as “significant enhancements”. The “dystrophin splice correction at the RNA level, glucose versus saline formulation” value in series [5] was “enhanced dystrophin splice correction”.
